Literature values in US20050107350A1, “Method for the treatment or prevention of bone disorders with a cyclooxygenase-2 inhibitor alone and in combination with a bone disorder treatment agent and compositions therewith” (Pharmacia Corporation, priority 2003, published 2005).
Structures can show the parent of a compound that is named as a salt.

Key:
patients = settings: human, in vivo
osteoporosis patients [1] = system: osteoporosis patients
osteoporosis patients [2] = settings: human, in vivo
rats = settings: rat, in vivo

Compound: CC(C)C[C@H](NC(=O)[C@H](CCCCN)NC(=O)CNC(=O)[C@H](CC(C)C)NC(=O)[C@@H](NC(=O)[C@@H]1CSSC[C@H](N)C(=O)N[C@@H](CO)C(=O)N[C@@H](CC(N)=O)C(=O)N[C@@H](CC(C)C)C(=O)N[C@@H](CO)C(=O)N[C@@H]([C@@H](C)O)C(=O)N1)C(C)C)C(=O)N[C@@H](CO)C(=O)N[C@@H](CCC(N)=O)C(=O)N[C@@H](CCC(=O)O)C(=O)N[C@@H](CC(C)C)C(=O)N[C@@H](Cc1c[nH]cn1)C(=O)N[C@@H](CCCCN)C(=O)N[C@@H](CC(C)C)C(=O)N[C@@H](CCC(N)=O)C(=O)N[C@H](C(=O)N[C@@H](Cc1ccc(O)cc1)C(=O)N1CCC[C@H]1C(=O)N[C@@H](CCCNC(=N)N)C(=O)N[C@H](C(=O)N[C@@H](CC(N)=O)C(=O)N[C@H](C(=O)NCC(=O)N[C@@H](CO)C(=O)NCC(=O)N[C@H](C(=O)N1CCC[C@H]1C(N)=O)[C@@H](C)O)[C@@H](C)O)[C@@H](C)O)[C@@H](C)O [calcitonin]
- common side effects (patients): flushing, nausea, vomiting, and diarrhea
- improvement of BMD (osteoporosis patients [1]; intranasal, after 2 years of treatment): 1-2%

Compound: O=C(c1ccc(OCCN2CCCCC2)cc1)c1c(-c2ccc(O)cc2)sc2cc(O)ccc12 [raloxifene, Methanone, [6-hydroxy-2-(4-hydroxyphenyl)benzo[b]thien-3-yl] - [4-[2-(1-piperidinyl)ethoxy]phenyl]-, hydrochloride]
- common side effects (patients): leg cramps and hot flashes
- effect on risk of breast cancer (patients): significantly decreases the risk of breast cancer
- decrease of vertebral fractures (osteoporosis patients [2]): 50%
- increase of BMD of the lumbar spine and hip (osteoporosis patients [1]; over 2-3 years of treatment): 2-3%

Compound: NCCCC(O)(P(=O)(O)O)P(=O)(O)O [alendronate, 4-amino-1-hydroxybulylidene bisphophonic acid]
- common side effects (patients): can irritate the lining of the upper gastrointestinal tract
- average improvement of patient's BMD (osteoporosis patients [1]; after three years of treatment): 8%
- patients treated who show an increase in BMD at the lumbar spine (osteoporosis patients [1]; lumbar spine): ≤ 95%

Compound: PTH: parathyroid hormone, the only anabolic agent currently available
- common side effects (patients): nausea, headaches, and leg cramps
- bone tumors (rats): increase in bone tumors
- increase of BMD in the spine (osteoporosis patients [1]; Neer et al., NEJM 2001): ≤ 13%
